Measured values: patent US20250230173A1, “SALT FORMS OF AN AXL INHIBITOR” (Arcus Biosciences, Inc., priority 2023, published 2025)
Marks after values point to notes of the source that are not given here.

Experiments:
Type in all cases: physicochemical
[1] = Stability study of selected solid forms, XRPD after 7 days of storage
Excerpt: XRPD diffractograms were collected with a Bruker, D2 Phaser or Panalytical Empyrean X-ray diffractometer. Diffractograms can be read by one of skill in the art, for example, to determine if a chemical sample is the substantially the same, different, or represents a mixture of forms. When a diffractogram is “substantially in accordance” as another diffractogram, a person of skill in the art would regard the samples resulting in the two diffractograms as the same form or same mixture of forms, taking into account minor variations for instrumentation, conditions, and the like.
A stability study comparing amorphous freebase Compound I, Freebase Form II, 2-Napsylate Form I, Fumarate Form I, Succinate Form I, and Camsylate Form I was conducted. HPLC measurements were taken after 7 days of storage at the indicated conditions.

[2] = Stability study of selected solid forms, HPLC purity after 7 days of storage
[3] = Stability of amorphous salt forms of Compound (I), HPLC purity loss on storage; conditions: for HPLC Purity Loss (%): stored at RT for 10 days under ambient humidity (~75% RH), purity on day 3 minus purity on day 10; for HPLC Purity Loss on Day 14 (%): 14 days at 40° C., 75% RH
Protocol: (§1) HPLC analysis was performed with an Agilent HPLC 1260 series instrument.
The stability of various amorphous salt forms of Compound (I) was also assessed. The salt forms, in general, were prepared by suspending Compound (I) in a suitable solvent at ambient temperature and adding the corresponding acid to the mixture. The mixtures were allowed to stir until a solution was formed, filtered to remove any trace solids, and the resulting filtrate lyophilized to access the salts as solids. Characterization by XRPD established that all salt forms were amorphous. […]

[4] = Stability of freebase Compound (I) in amorphous form, HPLC purity on storage
Protocol: as §1
The stability of the freebase amorphous form of Compound (I), for example, as prepared in Example 1, was assessed by High Performance Liquid Chromatography (HPLC). […] Freebase Compound (I) in amorphous form was added to 5 separate vials. Each vial was sealed and stored for a period of 5 days at 20° C., 40° C., 60° C., 80° C., and 100° C., respectively. Purity was assessed by HPLC initially, and after 1, 3, and 5 days of storage.

[5] = Form conversion of 2-Napsylate crystalline forms on vacuum drying or in slurry (XRPD); conditions: drying at 40° C. under vacuum (overnight)
[6] = Competitive slurry of 2-Napsylate Form I and Form VI at different water activities
Protocol: To determine the impact of water activity on 2-Napsylate Form VI and 2-Napsylate Form I, a series of competitive slurry experiments were carried out at different water activities in THF/water and ACN/water solvent systems at RT and 55° C. Suspensions of 2-Napsylate Form I at each condition were made and allowed to equilibrate for 2 h followed by addition of ˜5 mg of Form VI with stirring.

[7] = 7 days, 2° C., listed as Amorphous Freebase
[8] = 7 days, 25° C., listed as Amorphous Freebase
[9] = 7 days, 40° C. / 75% RH, listed as Amorphous Freebase
[10] = T0, listed as Amorphous Freebase

Cc1cccnc1-c1ccc(-c2n[nH]c3ncc(-c4ccc5c(c4)CC[C@@H](N4C6COCC4C6)CC5)cc23)nc1 [Fumarate Form I]
XRPD (solid form) ([1]; 7 days, 2° C.): Form I | XRPD (solid form) ([1]; 7 days, 25° C.): Form I | XRPD (solid form) ([1]; 7 days, 40° C. / 75% RH): Form I | XRPD (solid form) ([1]; T0): Form I | HPLC Purity (A %) ([2]; 7 days, 2° C.): 98.01 A % | HPLC Purity (A %) ([2]; 7 days, 25° C.): 97.94 A % | HPLC Purity (A %) ([2]; 7 days, 40° C. / 75% RH): 95.29 A % | HPLC Purity (A %) ([2]; T0): 97.84 A %

Cc1cccnc1-c1ccc(-c2n[nH]c3ncc(-c4ccc5c(c4)CC[C@@H](N4C6COCC4C6)CC5)cc23)nc1 [Benzoate]
HPLC Purity Loss (%) [3]: 3.0* %

Cc1cccnc1-c1ccc(-c2n[nH]c3ncc(-c4ccc5c(c4)CC[C@@H](N4C6COCC4C6)CC5)cc23)nc1 [Camsylate Form I]
XRPD (solid form) ([1]; 7 days, 2° C.): Form I | XRPD (solid form) ([1]; 7 days, 25° C.): Form I | XRPD (solid form) ([1]; 7 days, 40° C. / 75% RH): Decreased | XRPD (solid form) ([1]; T0): Form I | HPLC Purity (A %) ([2]; 7 days, 2° C.): 99.69 A % | HPLC Purity (A %) ([2]; 7 days, 25° C.): 99.68 A % | HPLC Purity (A %) ([2]; 7 days, 40° C. / 75% RH): 99.29 A % | HPLC Purity (A %) ([2]; T0): 99.69 A %

Cc1cccnc1-c1ccc(-c2n[nH]c3ncc(-c4ccc5c(c4)CC[C@@H](N4C6COCC4C6)CC5)cc23)nc1 [Amorphous Compound (I) (freebase)]
XRPD (solid form) [1, 7]: Amorphous | XRPD (solid form) [1, 8]: Amorphous | XRPD (solid form) [1, 9]: Amorphous | XRPD (solid form) [1, 10]: Amorphous | HPLC Purity (A %) [2, 7]: 97.68 A % | HPLC Purity (A %) [2, 8]: 97.58 A % | HPLC Purity (A %) [2, 9]: 96.88 A % | HPLC Purity (A %) [2, 10]: 97.42 A % | HPLC purity ([4]; 40° C., Day 0): 96.45 % purity | HPLC purity ([4]; 40° C., Day 1): 96.12% purity | HPLC purity ([4]; 40° C., Day 3): 95.87% purity | HPLC purity ([4]; 40° C., Day 5): 95.00% purity | HPLC purity ([4]; 60° C., Day 0): 96.45 % purity | HPLC purity ([4]; 60° C., Day 1): 95.92% purity | HPLC purity ([4]; 60° C., Day 3): 93.06% purity | HPLC purity ([4]; 60° C., Day 5): 92.39% purity | HPLC purity ([4]; 80° C., Day 0): 96.45 % purity | HPLC purity ([4]; 80° C., Day 1): 95.01% purity | HPLC purity ([4]; 80° C., Day 3): 91.87% purity | HPLC purity ([4]; 80° C., Day 5): 89.86% purity | HPLC purity ([4]; 100° C., Day 0): 96.45 % purity | HPLC purity ([4]; 100° C., Day 1): 90.13% purity | HPLC purity ([4]; 100° C., Day 3): 74.66% purity | HPLC purity ([4]; 100° C., Day 5): 68.00% purity | HPLC purity ([4]; r.t., Day 0): 96.45 % purity | HPLC purity ([4]; r.t., Day 1): 96.23% purity | HPLC purity ([4]; r.t., Day 3): 96.01% purity | HPLC purity ([4]; r.t., Day 5): 96.03% purity | Decomposition on storage (HPLC) ([4]; sealed vials, 5 days at 20° C., 40° C., 60° C., 80° C., 100° C.): underwent decomposition

Cc1cccnc1-c1ccc(-c2n[nH]c3ncc(-c4ccc5c(c4)CC[C@@H](N4C6COCC4C6)CC5)cc23)nc1 [Chloride]
HPLC Purity Loss on Day 14 (%) [3]: 1.5% | HPLC Purity Loss (%) [3]: 6.6* %

Cc1cccnc1-c1ccc(-c2n[nH]c3ncc(-c4ccc5c(c4)CC[C@@H](N4C6COCC4C6)CC5)cc23)nc1 [Freebase Form II]
XRPD (solid form) ([1]; 7 days, 25° C.): Form II | XRPD (solid form) ([1]; 7 days, 40° C. / 75% RH): Form II | XRPD (solid form) ([1]; 7 days, 60° C.): Form I | XRPD (solid form) ([1]; T0): Form II | HPLC Purity (A %) ([2]; 7 days, 25° C.): 99.44 A % | HPLC Purity (A %) ([2]; 7 days, 40° C. / 75% RH): 99.36 A % | HPLC Purity (A %) ([2]; 7 days, 60° C.): 99.22 A % | Chemical and physical stability compared to the other forms tested ([2]; Example 6 stability study): better chemical and physical stability | HPLC Purity (A %) ([2]; T0): 100.0 A %

Cc1cccnc1-c1ccc(-c2n[nH]c3ncc(-c4ccc5c(c4)CC[C@@H](N4C6COCC4C6)CC5)cc23)nc1 [Form X]
Crystal form after drying [5]: amorphous after

Cc1cccnc1-c1ccc(-c2n[nH]c3ncc(-c4ccc5c(c4)CC[C@@H](N4C6COCC4C6)CC5)cc23)nc1 [Form V]
Crystal form after drying [5]: Form VII after

Cc1cccnc1-c1ccc(-c2n[nH]c3ncc(-c4ccc5c(c4)CC[C@@H](N4C6COCC4C6)CC5)cc23)nc1 [Succinate Form I]
XRPD (solid form) ([1]; 7 days, 2° C.): Form I | XRPD (solid form) ([1]; 7 days, 25° C.): Form I | XRPD (solid form) ([1]; 7 days, 40° C. / 75% RH): Form I | XRPD (solid form) ([1]; T0): Form I | HPLC Purity (A %) ([2]; 7 days, 2° C.): 97.74 A % | HPLC Purity (A %) ([2]; 7 days, 25° C.): 98.22 A % | HPLC Purity (A %) ([2]; 7 days, 40° C. / 75% RH): 89.76 A % | HPLC Purity (A %) ([2]; T0): 98.09 A %

Cc1cccnc1-c1ccc(-c2n[nH]c3ncc(-c4ccc5c(c4)CC[C@@H](N4C6COCC4C6)CC5)cc23)nc1 [Citrate]
HPLC Purity Loss on Day 14 (%) [3]: 14.2%

Cc1cccnc1-c1ccc(-c2n[nH]c3ncc(-c4ccc5c(c4)CC[C@@H](N4C6COCC4C6)CC5)cc23)nc1
2-Napsyalte Crystal Form ([6]; 55° C., H2O, 1 w): Gel Formation | 2-Napsyalte Crystal Form ([6]; 55° C., H2O, 2 d): Gel Formation | 2-Napsyalte Crystal Form ([6]; 55° C., THF, 1 w): Form I (majorly) | 2-Napsyalte Crystal Form ([6]; 55° C., THF, 2 d): Form VI (majorly) | 2-Napsyalte Crystal Form ([6]; 55° C., THF/H2O (aw = 0.2), 1 w): Form I | 2-Napsyalte Crystal Form ([6]; 55° C., THF/H2O (aw = 0.2), 2 d): Form I (majorly) | 2-Napsyalte Crystal Form ([6]; 55° C., THF/H2O (aw = 0.4), 1 w): Gel Formation | 2-Napsyalte Crystal Form ([6]; 55° C., THF/H2O (aw = 0.4), 2 d): Gel Formation | 2-Napsyalte Crystal Form ([6]; 55° C., THF/H2O (aw = 0.6), 1 w): Gel Formation | 2-Napsyalte Crystal Form ([6]; 55° C., THF/H2O (aw = 0.6), 2 d): Gel Formation | 2-Napsyalte Crystal Form ([6]; 55° C., THF/H2O (aw = 0.8), 1 w): Gel Formation | 2-Napsyalte Crystal Form ([6]; 55° C., THF/H2O (aw = 0.8), 2 d): Gel Formation | 2-Napsylate Crystal Form ([6]; RT, ACN, 1 d): Form I | 2-Napsylate Crystal Form ([6]; RT, ACN/H2O (aw = 0.2), 1 d): Form I | 2-Napsylate Crystal Form ([6]; RT, ACN/H2O (aw = 0.4), 1 d): Form I | 2-Napsylate Crystal Form ([6]; RT, ACN/H2O (aw = 0.6), 1 d): Form I | 2-Napsylate Crystal Form ([6]; RT, ACN/H2O (aw = 0.8), 1 d): Gel Formation | 2-Napsyalte Crystal Form ([6]; RT, H2O, 1 w): Form IX | 2-Napsylate Crystal Form ([6]; RT, H2O, 1 d (ACN series)): Form I | 2-Napsyalte Crystal Form ([6]; RT, H2O, 2 d): Form I | 2-Napsyalte Crystal Form ([6]; RT, THF, 1 w): Form I (majorly) | 2-Napsyalte Crystal Form ([6]; RT, THF, 2 d): Form VI (majorly) | 2-Napsyalte Crystal Form ([6]; RT, THF/H2O (aw = 0.2), 1 w): Form I (majorly) | 2-Napsyalte Crystal Form ([6]; RT, THF/H2O (aw = 0.2), 2 d): Form I (majorly) | 2-Napsyalte Crystal Form ([6]; RT, THF/H2O (aw = 0.4), 1 w): Gel Formation | 2-Napsyalte Crystal Form ([6]; RT, THF/H2O (aw = 0.4), 2 d): Gel Formation | 2-Napsyalte Crystal Form ([6]; RT, THF/H2O (aw = 0.6), 1 w): Gel Formation | 2-Napsyalte Crystal Form ([6]; RT, THF/H2O (aw = 0.6), 2 d): Gel Formation | 2-Napsyalte Crystal Form ([6]; RT, THF/H2O (aw = 0.8), 1 w): Gel Formation | 2-Napsyalte Crystal Form ([6]; RT, THF/H2O (aw = 0.8), 2 d): Gel Formation

Cc1cccnc1-c1ccc(-c2n[nH]c3ncc(-c4ccc5c(c4)CC[C@@H](N4C6COCC4C6)CC5)cc23)nc1 [Benzene Sulfonic]
HPLC Purity Loss on Day 14 (%) [3]: 3.4%
